# In patent US20110178024A1, “AMYLOID BETA-PEPTIDES AND METHODS OF USE THEREOF” (Ben Gurion University of the Negev Research and Development …, priority 2008, published 2011):
# “Also recorded” adds a separate entry of the source.
# Key:
# [1] = test system: splenocyte-derived T cells of HLA-DR15 humanized mice; assay: Proliferation assay of mouse-derived T cells, Aβ-immunized DR15 humanized mice; assay type: cell-based; settings: for T-cell proliferation, in words: mice bearing the DRB1*1501 allele
# Procedure: (§1) Mice were immunized by subcutaneous injection of Aβ 1-42 ([…]) emulsified in complete Freund's Adjuvant (CFA) H37Ra (Difco, Detroit, Mich., USA) or in incomplete Freund's Adjuvant (IFA; Sigma, Israel), as indicated in Figure legends. When indicated, pertussis toxin (PTX) (List Biological Laboratories, Campbell, Calif., USA) was injected intravenously (200 ng/mouse) on day 0 and again 48 hours later.
# (§2) Popliteal lymph nodes or spleens of immunized mice were harvested and cultured (5×10^6 cells/ml) in U-shaped 96-well-plate culture dishes in DMEM containing 10% fetal calf serum, 10 mM HEPES, 1 mM sodium pyruvate, 10 mM nonessential amino acids, 1% Pen/Strep, and […] b-mercaptoethanol. After 72 hours, 3[H]thymidine ([…]) was added. Cells were harvested after 12 hours, and their radioactivity was measured.
# [2] = test system: Aβ-reactive T-cell line 1 (DRB1 1501/1502); assay: Human T-cell line proliferation assay, T-cell line 1; assay type: cell-based; settings: for T-cell proliferation ([3H]thymidine incorporation), in words: T-cell line 1, autologous PBMCs
# Procedure: (§3) PBMCs were isolated from the freshly drawn heparinized whole blood of each study participant (N=133) by Ficoll-Paque (Amersham Pharmacia Biotech, Uppsala, Sweden) gradient centrifugation, according to the manufacturer's instructions. Cells were cultured in 30 wells of 96-well round-bottom plates at 2×10^5 cells/well in RPMI medium (containing 2.5% nonautologous serum, 4 mM L-glutamine, 10 mM HEPES, 1 mM sodium pyruvate, and 10 mM nonessential amino acids) in the presence of pure human Aβ1-42 peptide. On the 5th day of culture, 10 U/ml of recombinant human interleukin (IL)-2 was added by replacing half of the medium with IL-2-containing medium. On day 7 the medium was replaced with IL-2-free medium. On day 10, half of the cells from each well were restimulated with irradiated autologous PBMCs in the presence or absence of 5 μg/ml Aβ for 48 hours and then pulsed with [3H] thymidine for 12 hours. Cells w then harvested, their radioactivity measured (in cpm), and the stimulation index (SI; (cpm in the presence of Aβ divided by cpm in the absence of Aβ) determined. Positive wells (SI≧2.5 and Δcpm of at least 2000) obtained in the split-well assay were restimulated, 14 days after their primary stimulation, in the presence of irradiated (7000 R) autologous PBMCs (2×10^5 cells/well) and Aβ1-42. T-cell lines were then supplemented with IL-2 (10 U/ml) after 48 hours and every 2 days thereafter until they reached a resting state.
# (§4) Antigen (Ag)-specific proliferative responses were measured by culturing the contents of positive wells from the split-well assay with irradiated PBMCs (2×10^5/well) at 37° C. in duplicate wells in 96-well U-bottom microtiter plates in a final volume of 200 μl of culture medium alone or culture medium containing serially diluted nested Aβ peptides. After 48 hours, 1 μCi of [3H]thymidine (Amersham, Arlington Heights, Ill.) was added to each well in 50 μl of culture medium. The cells were harvested 16 hours later onto fiberglass filters with a cell harvester (Packard, Filtermate 196), and [3H]thymidine incorporation was determined with a Packard Matrix 96 direct counter.
# [3] = test system: Aβ-reactive T-cell line 2 (DRB1 1301/0401); assay: Human T-cell line proliferation assay, T-cell line 2; assay type: cell-based; settings: T-cell line 2, autologous PBMCs
# Procedure: as §3, §4
# Aβ-reactive T-cell lines = assay: Epitope specificity and HLA-DR allele restriction of Aβ-reactive T-cell lines; assay type: cell-based, human; settings: autologous and semi-autologous PBMCs as antigen-presenting cells
# Procedure: as §3, §4
# High-resolution HLA typing of PBMCs of the human subjects was carried out at the Brigham and Women's Hospital Clinical Laboratory using the PCR/RFLP method. Genomic DNA was extracted from whole blood or frozen cells. DNA was amplified using locus-specific and group-specific primers for DNA class II loci. DNA fragments were detected using agarose gel electrophoresis and subjected to restriction enzyme digestion, as recommended by the 10th International Histocompatibility Workshop (http://www.ihwg.org/components/ssopr.htm). The DNA fragments were then separated by agarose gel electrophoresis and the specific HLA-DR alleles were analyzed visually.
# To identify the HLA-DR alleles that play a role in Aβ immunogenicity, Aβ-reactive T-cell lines were generated from the PBMCs of human subjects as described in Materials and Methods. These T cells were then restimulated with autologous or semi-autologous PBMCs (nonautologous PBMCs bearing one of the autologous DRB1 alleles) to determine their epitope specificity and identify their dominant epitope-presenting HLA-DR alleles. Overall, the PBMCs of 89 of the 133 individuals analyzed in this study yielded positive Aβ-reactive T-cell responses in the split-well assay as described in Materials and Methods and our previous publication ((2003). J Clin Invest 112:415-422). From these 89 PBMC samples, 39 Aβ-reactive T-cell lines were successfully generated and were analyzed for epitope specificity and HLA-DR allele restriction, as shown in FIG. 1. Table 2 lists the HLA-DR alleles whose expression by PBMCs was essential for proliferation of the Aβ-specific T-cell lines. The table also records the frequency of the HLA-DR alleles in our study population and lists the Aβ peptides harboring the dominant T-cell epitopes. […]
# [4] = test system: splenocyte-derived T cells of HLA-DR4 humanized mice; assay: Proliferation assay of mouse-derived T cells, Aβ-immunized DR4 humanized mice; assay type: cell-based; settings: mice bearing the DR4 allele
# Procedure: as §1, §2
# HLA-DR15 (DRB1*1501) = HLA-DR15 (DRB1*1501) (human); assay: cell-based or functional assay
# HLA-DR4 (DRB1*0401) = HLA-DR4 (DRB1*0401) (human); assay: cell-based or functional assay
molecule,measurement,setting,value
"Aβ1-28: N-terminal fragment of Aβ, residues 1-28; nested overlapping Aβ peptide","T-cell proliferation, in words",[1],only a mild T-cell response
same,"T-cell proliferation ([3H]thymidine incorporation), in words",[2],only mild T-cell proliferation
KLVFFAEDVGSNKGA (listed as Homo sapiens) [Aβ16-30],"T-cell proliferation ([3H]thymidine incorporation), in words",[3],stimulated
QKLVFFAEDVGSNKGAIIGL (listed as Homo sapiens) [Aβ15-34],DRB1 allele with which the T-cell-stimulatory Aβ peptide stimulates Aβ-reactive T-cell lines,Aβ-reactive T-cell lines,DRB1*0101
same,"T-cell proliferation ([3H]thymidine incorporation), in words",[3],stimulated
LVFFAEDVGSNKGAI (listed as Homo sapiens) [Aβ17-31],DRB1 allele with which the T-cell-stimulatory Aβ peptide stimulates Aβ-reactive T-cell lines,Aβ-reactive T-cell lines,DRB1*1301
same,"T-cell proliferation ([3H]thymidine incorporation), in words",[3],stimulated
"Aβ19-33: nested overlapping Aβ peptide, residues 19-33 (FFAEDVGSNKGAIIG)","T-cell proliferation ([3H]thymidine incorporation), in words",[3],Substantially lower T-cell proliferation
QKLVFFAEDVGSNKG (listed as Homo sapiens) [Aβ15-29],DRB1 allele with which the T-cell-stimulatory Aβ peptide stimulates Aβ-reactive T-cell lines,Aβ-reactive T-cell lines,DRB1*1001
QKLVFFAEDVGSNKGAIIGLMVGGVVIA (listed as Homo sapiens) [Aβ15-42],"T-cell proliferation, in words",[4],induced
same,"T-cell proliferation, in words",[1],strong T-cell proliferation
same,DRB1 allele with which the T-cell-stimulatory Aβ peptide stimulates Aβ-reactive T-cell lines,Aβ-reactive T-cell lines,DRB1*1502; also recorded: DRB1*0301
same,"T-cell proliferation ([3H]thymidine incorporation), in words",[2],triggered
same,"T-cell proliferation ([3H]thymidine incorporation), in words",[3],triggered
VFFAEDVGSNKGAII (listed as Homo sapiens) [Aβ18-32],DRB1 allele with which the T-cell-stimulatory Aβ peptide stimulates Aβ-reactive T-cell lines,Aβ-reactive T-cell lines,DRB1*0404; also recorded: DRB1*0401
same,"T-cell proliferation ([3H]thymidine incorporation), in words",[3],stimulated
"Aβ25-42: T-cell-stimulatory Aβ peptides between Aβ residues 25 and 42 (GSNKGAIIGLMVGGVVIA; Amyloid-beta protein 42; UniProt P05067 696-713, looked up, fragment)",DRB1 allele with which the T-cell-stimulatory Aβ peptide stimulates Aβ-reactive T-cell lines,Aβ-reactive T-cell lines,DRB1*1501
GSNKGAIIGLMVGGV [Aβ25-39],"SI (stimulation index), T-cell proliferation","[1]; DR15 mice, 10 μg/ml, 72 hours",8.8
same,"SI (stimulation index), T-cell proliferation","[2]; T-cell line 1, 5 μg peptide/ml, irradiated autologous PBMCs, 72 hours",17.3
same,"T-cell proliferation ([3H]thymidine incorporation), in words",[2],specifically stimulated
QKLVFFAEDVGSNKGAIIGLMVGGVVIA [Aβ15-42 peptide],"T-cell line 1 proliferation, SI at 5 µg peptide/ml",HLA-DR15 (DRB1*1501),15.8 SI
same,"T-cell proliferation of splenocytes of Aβ-immunized DR15 mice, SI at 10 µg/ml",HLA-DR15 (DRB1*1501),14.2 SI
same,"T-cell line 2 proliferation, SI at 5 µg peptide/ml",HLA-DR4 (DRB1*0401),7.8 SI
same,"T-cell proliferation of splenocytes of Aβ-immunized DR4 mice, SI at 10 µg/ml",HLA-DR4 (DRB1*0401),3.7 SI
GSNKGAIIGLMVGGV [Aβ25-39 peptide],"T-cell line 1 proliferation, SI at 5 µg peptide/ml",HLA-DR15 (DRB1*1501),17.3 SI
same,"T-cell proliferation of splenocytes of Aβ-immunized DR15 mice, SI at 10 µg/ml",HLA-DR15 (DRB1*1501),8.8 SI
VFFAEDVGSNKGAII [Aβ18-32 peptide],"T-cell line 2 proliferation, SI at 5 µg peptide/ml",HLA-DR4 (DRB1*0401),6.1 SI
same,"T-cell proliferation of splenocytes of Aβ-immunized DR4 mice, SI at 10 µg/ml",HLA-DR4 (DRB1*0401),9.2 SI
KLVFFAEDVGSNKGA [Aβ16-30 peptide],"T-cell line 2 proliferation, SI at 5 µg peptide/ml",HLA-DR4 (DRB1*0401),6.4 SI
same,"T-cell proliferation of splenocytes of Aβ-immunized DR4 mice, SI at 10 µg/ml",HLA-DR4 (DRB1*0401),5.9 SI
KGAIIGLMVGGVVIA [Aβ28-42 peptide],"T-cell line 1 proliferation, SI at 5 µg peptide/ml",HLA-DR15 (DRB1*1501),12.6 SI
same,"T-cell proliferation of splenocytes of Aβ-immunized DR15 mice, SI at 10 µg/ml",HLA-DR15 (DRB1*1501),12.2 SI
LVFFAEDVGSNKGAI [Aβ17-31 peptide],"T-cell line 2 proliferation, SI at 5 µg peptide/ml",HLA-DR4 (DRB1*0401),6.2 SI
same,"T-cell proliferation of splenocytes of Aβ-immunized DR4 mice, SI at 10 µg/ml",HLA-DR4 (DRB1*0401),6.1 SI
EDVGSNKGAIIGLMV [Aβ22-36 peptide],"T-cell line 1 proliferation, SI at 5 µg peptide/ml",HLA-DR15 (DRB1*1501),10.2 SI
